Columns and labels:
Assay type in all cases: cell-based, mouse
APMAP^KO Ramos cells = assay: Time-lapse phagocytosis assay, uptake of pHrodo-labeled APMAP^KO Ramos cells by J774 macrophages with anti-CD20 antibodies and GPR84 agonists; conditions: at high concentrations of agonist, anti-CD20 antibodies (FIG. 12C)
Protocol: (§1) Time-lapse microscopy assay for phagocytosis J774 cells were lifted by scraping, counted, and plated in 24 well tissue culture plates at a density of 100,000 cells per well in 0.5 ml media 48 h prior to the start of the experiment. At 24 h after plating, media was aspirated and replaced with fresh media containing 10 ng ml^−1 lipopolysaccharide (LPS) (Sigma). On the day of the experiment, target cells that had been transduced with sgRNAs, co-expressed with GFP and PuroR, and selected with puromycin as described above, were lifted, pelleted, and counted. Cells were washed three times in dPBS, incubated in dPBS containing 6.6 ng ml-1 pHrodo-Red succinimidyl ester (Thermo Fisher) at a cell concentration of 1M ml^−1 for 30 minutes, washed once, and resuspended in DMEM supplemented with 2 mM glutamine, 100 units ml^−1 penicillin, […] streptomycin and 10% heat-inactivated FCS, and containing anti-CD20, anti-CD30, and/or anti-CD47 antibodies, as indicated, at a cell concentration of 1M ml^−1. 220 μl of cell suspensions was added to each well. Plates were transferred to an incubator and imaged every 30 or 60 minutes using an Incucyte (Essen). Total red intensity for each well, averaged over 16 images per well, was calculated after applying a threshold for red intensity that excluded most or all cells at the first time point using top-hat background subtraction. Reported values represent the mean total red fluorescence intensity at each timepoint, minus the total red fluorescence at the initial timepoint (to remove signal from occasional autofluorescent debris), normalized to the initial total green fluorescence signal (to account for small variations in target cell density), of duplicate, triplicate, or quadruplicate wells, as indicated in the legend. […]

Safe^KO Ramos cells = assay: Time-lapse phagocytosis assay, uptake of pHrodo-labeled Safe^KO Ramos cells by J774 macrophages with anti-CD20 antibodies and GPR84 agonists; conditions: anti-CD20 antibodies, GPR84 agonist added (FIG. 4D)
Protocol: as §1

[1] = test system: Ramos Burkitt lymphoma cells; assay: ADCP of Ramos Burkitt lymphoma cells by LPS-activated J774 macrophages; conditions: in the presence of LPS-activated J774 macrophages
Protocol: For the screens, cells were split into two conditions, each in duplicate: an untreated control group and ADCP treated group. In the ADCP group, for each round of treatment, Ramos cells were incubated with J774 macrophages, which had been seeded into 15 cm plates 48 h prior (at 5 M cells per plate) and treated with LPS (10 ng ml^−1) starting 24 h prior, in the presence of anti-CD20 antibodies (50 ng ml^−1) (CRISPRko screen) or both anti-CD20 antibodies (50 ng ml^−1) and anti-CD47 antibodies (100 ng ml-1) (CRISPRa screen). 25 M Ramos cells were added to each plate and incubated with J774 macrophages for 24 h, and were then removed from the macrophage-containing plates via two rounds of washing with complete RPMI media. Ramos cells were then allowed to recover in T-150 flasks for 24-72 h before the next round of treatment. At the end of the screen, 300 million cells were recovered from each condition and pelleted by centrifugation. […] The sgRNA sequences were amplified and sequenced using an Illumina NextSeq with ˜40 million reads per condition; ˜200× coverage per library element). […]
To establish a scalable platform for genetic screening for regulators of ADCP, conditions for antibody-stimulated uptake of cancer cells by macrophage cell lines were optimized, which, unlike primary macrophages, can readily be cultured at the ultra-high scales necessary for screening. […]

Molecule: CCCCCCCCCC(=O)O [capric acid]
- uptake of APMAP^KO cells (APMAP^KO Ramos cells): inhibited
- antibody-dependent phagocytosis of Safe^KO cells (Safe^KO Ramos cells): stimulated

Molecule: CCCCCCCCNc1cc(=O)[nH]c(=O)[nH]1 [6-OAU, (octylamino) pyrimidine-2,4(1H,3H)-dione]
- uptake of APMAP^KO cells (APMAP^KO Ramos cells): inhibited
- antibody-dependent phagocytosis of Safe^KO cells (Safe^KO Ramos cells): stimulated

Molecule: rituximab-biosimilar anti-CD20 antibodies: rituximab-biosimilar anti-CD20 antibodies used to drive ADCP
- phagocytosis of Ramos cells [1]: high rates of phagocytosis

Molecule: CCCCCCSc1nc(O)cc(=O)[nH]1 [ZQ-16]
- uptake of APMAP^KO cells (APMAP^KO Ramos cells): inhibited
- antibody-dependent phagocytosis of Safe^KO cells (Safe^KO Ramos cells): stimulated
